Measured values as given in ChEMBL document CHEMBL3301448, “MMV Malaria Box screening against Toxoplasma gondii and Entamoeba histolytica”.

How the values were obtained:
Entamoeba histolytica = test: MMV: Primary screening was performed with each compound at a 30 uM final concentration and in triplicate in sealed 96-well polystyrene microtiter plates. Parasite inocula (100 ul) comprising 20000 parasites/ml were added to each well and grown at 37 degrees C in a humidified atmosphere of 5% CO2 for 72 h. Positive controls consisted of metronidazole at 1 mg/ml. The growth of E. histolytica trophozoites in each well was determined microscopically by measuring the diameters of the confluent cells in drug-containing wells relative to those in the nega- tive-control wells.; type: functional, organism-based
Toxoplasma gondii = test: MMV: A total of 100ul of inoculum was added to each well (parasite/cell ratio, ~10:1; final volume, 200 ul). Six hours after inoculation, nonadherent parasites were removed, and 100 ul of complete DMEM (1% penicillin-streptomycin, 3% FBS) supplemented with inhibitors at different concentrations (2-fold serial dilutions starting from 30 uM) was added to all except the negative-control wells. Positive controls, consisting of pyrimethamine (PYR) and sulfadiazine (SDZ) (20-mg/ml stocks in DMSO), were tested at a 2mg/ml final concentration. Each test was performed in triplicate.; type: functional, organism-based; settings: 6 h

SMILES | IC50 (Entamoeba histolytica) [µM] | IC50 (Toxoplasma gondii) [µM]
CCCCCCC(O)(c1ccc(F)cc1)C(CN1CCOCC1)c1ccccc1 (configuration not stated) | > 30 | > 30
CC(C)CNC(=O)c1c(N)n(CCc2ccccc2F)c2nc3ccccc3nc12 | > 30 | 26.8
COc1cc(OC)c(N(C)C(=O)c2cc3c(s2)-c2ccccc2S(=O)(=O)C3)cc1Cl | > 30 | > 30
Cc1ccccc1OCCSc1nc2ccc(NC(=O)c3cccs3)cc2s1 | > 30 | > 30
Nc1nc(Nc2cccc(F)c2)nc2ccccc12 | > 30 | 29
Cc1cc(N(C)C)nc(Nc2ccc(NC(=O)Nc3ccccc3)cc2)n1 | > 30 | > 30
Cc1cc(C=C2SC(=Nc3ccccc3)N(C3CCCC3)C2=O)c(C)n1-c1ccc(Cl)cc1 | > 30 | > 30
CCn1c2c(c(=N)c3c1CCC3)CCCC2 | > 30 | > 30
O=C(NCc1ccco1)C1CCN(S(=O)(=O)c2ccc(Br)cc2)CC1 | > 30 | > 30
CC(C)(C)c1ccc2c(c1)CN(Cc1ccc(Cl)cc1)CO2 | > 30 | 20.4
CCCCNc1nc(NC(C)(C)C)nc(NC(C)(C)C)n1 | > 30 | > 30
CCN(CC)CCNc1ncnc2c1[nH]c1ccc(Br)cc12 | > 30 | > 30
O=C(Nc1ccc(Cl)c(Cl)c1)Nc1ccc(Cl)c(Cl)c1 | > 30 | > 30
COc1cccc(-c2nn(C)c3sc(C(=O)NCCN4CCN(c5ccccc5F)CC4)cc23)c1 | > 30 | > 30
OC(CNC1CCCCC1)Cn1c2ccccc2c2ccccc21 (configuration not stated) | > 30 | 8.72
CCOc1cc2c(cc1OCC)C(c1cc(Cl)ccc1O)NCC2 (configuration not stated) | > 30 | > 30
CCN(CC)CCCNc1nc(-c2ccc(Cl)cc2)nc2ccccc12 | > 30 | > 30
COc1cc(C(=O)ON=C(N)Cc2cccc3ccccc23)cc(OC)c1OC | > 30 | > 30

SMILES | IC50 (Entamoeba histolytica) [µM] | IC50 (Toxoplasma gondii) [µM]
Cc1cc(Nc2ccc(Cl)cc2)n2nc(C(F)(F)F)nc2n1 | > 30 | > 30
Nc1ccc(-c2nc3cc(Cc4ccc5[nH]c(-c6ccc(N)cc6)nc5c4)ccc3[nH]2)cc1 | > 30 | > 30
CN(C)c1ccc(N=Cc2ccc(N3CCOCC3)cc2)cc1 | > 30 | > 30
COc1ccc(C(O)(CCC(C)C)C(CN2CCOCC2)c2ccc(Cl)cc2)cc1 (configuration not stated) | > 30 | > 30
c1ccc(/C2=N/c3ccccc3/N=C(/c3ccccc3)c3ccccc32)cc1 | > 30 | > 30
COc1ccc(-c2nc3cc(Cc4ccc5[nH]c(-c6ccc(OC)cc6)nc5c4)ccc3[nH]2)cc1 | > 30 | > 30
CN1CCN(c2c3c(c(C#N)c4nc5ccccc5n24)CCC3)CC1 | > 30 | > 30
Clc1ccc2c(N3CCCC3)ccnc2c1 | > 30 | 1.49
OC(CNC1CCCC1)Cn1c2ccccc2c2ccccc21 (configuration not stated) | > 30 | > 30
COc1ccc(/C=C2/SC(=Nc3ccccc3)NC2=O)cc1 | > 30 | > 30
COc1ccc(C)c2sc(N(Cc3cccnc3)C(=O)c3ccc(C#N)cc3)nc12 | > 30 | > 30
Cn1c(=O)n(C)c2cc(CNCCNc3ccnc4cc(Cl)ccc34)ccc21 | > 30 | > 30
O=c1nc(C=Cc2ccc(Br)cc2)oc2ccccc12 | > 30 | > 30
CCCc1cc(O)c2c3c(c(=O)oc2c1)CN(C)CC3 | > 30 | > 30
COc1ccc2c(c1)C1(Nc3ccccc3-c3nc4ccccc4n31)C(=O)N2 (configuration not stated) | > 30 | > 30
CN1c2ccccc2N(C)C1c1ccc2c(c1)OCO2 | > 30 | > 30
Cc1ccc(Nc2nc(N)c3ccccc3n2)cc1Cl | > 30 | > 30
CCc1ccc(Nc2cc(C)nc3nc(C)nn23)cc1 | > 30 | > 30
